Square brackets hold non-standard residues; d marks the D form. Peptide text beside a SMILES is read from it.
Key:
[1] = system: Primary Rat Whole Blood Cells; assay: Cytokine release in rat whole blood stimulated with LPS or PMA+ionomycin; type: cell-based; settings: 10 μM inhibitor, PMA+ionomycin 25/500, 50/750, 50/1000 ng/mL, 4 h
Description: Given are the results for the control, 1 μM of SEQ ID NO: 172, 3 μM of SEQ ID NO: 172, and 10 μM of SEQ ID NO: 172 at different levels of LPS (ng/ml).
FIG. 17 Dose dependent inhibition of IL-2 release in rat whole blood stimulated with PMA+ionomycin. JNK inhibitor with SEQ ID NO: 172 was added at three different concentrations, namely 1, 3 and 10 μM 1 h before stimulation with PMA+ionomycin. Three doses of activators were added (25/500 ng/mL, 50/750 ng/mL and 50/1000 ng/mL) for 4 h. IL-2 release was assessed in supernatant.
Whole blood is collected from anesthetized rat or human healthy volunteers using a venipuncture connected to a pre-labeled vacuum tube containing sodium citrate. Tubes are gently mixed by inversion 7-8 times; and are then kept at RT until stimulation. JNK inhibitor of SEQ ID NO: 172 is prepared 6 times concentrated in PBS, and 30 μl/well of mix is added into 96-well plate. Whole blood is diluted by 1:2 in PBS and 120 μl of diluted blood is added in each well where either PBS alone or JNK inhibitor of SEQ ID NO: 172 has been previously added. Whole blood is incubated at 37° C.; 85 rpm (Stuart Orbital incubator SI500) for 60 min. […] Cytokine (IL-6, IL-2, IFNγ and TNFα) were then measured using standard Elisa kits (e.g. from R&D Systems: DuoSet Elisas; or from BD Biosciences: BD Opteia Set Elisa). Results are expressed as pg/ml of supernatant of the measured cytokine. […]

[2] = system: IMQ-induced psoriasis in BALB/c mice; assay: Imiquimod-induced psoriasis in mice, ear histopathology; type: in vivo, mouse
Description: Female BALB/cAnNCrl mice (Charles River, age 8 to 10 weeks at study start) have been assigned to the following groups (treatment schedule):
In this experiment, two positive controls have been utilized. Firstly, Prednisolone at 10 mg/kg (vehicle: 1% Hydroxyethylcellulose, 0.25% Polysorbate 80, and 0.05% Antifoam in purified water) has been dosed daily and orally (group “Prednisolone”). Secondly, Dexamethasone has been administered at 0.5 mg/kg (vehicle: sterile 0.9% NaCl) on days 1, 4 and 7 via intravenous route.
On day 8, animals have been sacrificed and the tissue (ear) has been fixed in 10% neutral buffered formalin. For histopathology hematoxylin-and-eosin-stained sections (cross cut) have been prepared and microscopic evaluation on the collected tissues from all animals has been performed. Methods and end-points for histopathology were similarly described in the van der Fits (2009) paper in that inflammation, epidermal hyperplasia, epidermal hyperkeratosis (rather than parakeratosis) were observed and recorded for severity grade, whereby the respective methodology from Van der Fits et al. (The Journal of Immunology 2009, 182, P. 5836-5845) is hereby incorporated by reference. Histopathology grading scores were excluded for either skin or ear in animals with secondary inflammatory processes (full thickness epidermal ulcers). Scores were averaged by group and standard deviation and statistical significance were calculated. […] Formalin-fixed, paraffin embedded skin from the dorsal surface of the mouse (BALB/c) was stained with hematoxylin and eosin (H&E) stain and assessed microscopically. An important difference from the above reference and to describe in more detail the observations of the present study: Hyperkeratosis can be defined specifically as orthokeratotic (no retained nuclei) or parakeratotic (retained nuclei). Either can occur normally in various anatomical locations and depending on species; however, both conditions are well defined in particular disease states. The van der Fits paper describes their Imiquimod (IMQ)-induced psoriasis model as causing parakeratotic hyperkeratosis similar to what is seen in the human condition, and that was a defined end-point for this study. However, the Danilenko et al. (Veterinary Pathology 2008 45:563) has shown that many rodent psoriasis models have orthokeratotic hyperkeratosis. […] The more general term ‘hyperkeratosis’ was used for grading end-points and describe in the text what type was seen (primarily orthokeratotic).
1=MI=minimal 2=SL=slight 3=M0=moderate 4=MA=marked 5=SE=severe

`CC(C)C[C@H](NC(=O)[C@H](CC(N)=O)NC(=O)[C@H](CC(C)C)NC(=O)[C@@H](NC(=O)[C@@H](C)NC(=O)[C@@H]1CCCN1C(=O)[C@H](CCCNC(=N)N)NC(=O)[C@@H](CCCCN)NC(=O)[C@@H]1CCCN1C(=O)[C@H](CCCNC(=N)N)NC(=O)[C@@H](CCCNC(=N)N)NC(=O)[C@H](CCCNC(=N)N)NC(=O)[C@H](CCCNC(=N)N)NC(=O)[C@H](CCC(N)=O)NC(=O)[C@@H](CCCNC(=N)N)NC(=O)[C@H](CCCNC(=N)N)NC(=O)[C@H](CCCCN)NC(=O)[C@H](CCCCN)NC(=O)[C@H](N)CCCNC(=N)N)[C@@H](C)O)C(=O)N[C@H](Cc1ccccc1)C(N)=O` [SEQ ID NO: 172, rKKRrQRRrRPkRPaTLNLf] (H-[dR]KKR[dR]QRR[dR]RP[dK]RP[dA]TLNL[dF]-NH2) was tested, and the “PMA-iono-induced IL-2 release” value [1] was “efficiently reduce”, the “inflammation of the ear (average histopathology grade) vs vehicle-IMQ group” value ([2]; high-dose 2 mg/kg IV days 1, 4, 7) was “decreased inflammation of the ear” and the “epidermal hyperkeratosis of the ear, average grades vs vehicle-IMQ group” value ([2]; low-dose 0.02 mg/kg IV days 1, 4, 7) was “minimally decreased average grades”. The “inflammation of the ear (average histopathology grade) vs vehicle-IMQ group” value ([2]; mid-dose 0.2 mg/kg IV days 1, 4, 7, statistically significant, 0.2 mg/kg) was “decreased inflammation of the ear”, the “inflammation of the ear (average histopathology grade) vs vehicle-IMQ group” value ([2]; mid-dose 0.2 mg/kg IV days 1, 4, 7, statistically significant, listed as XG-104, 0.2 mg/kg) was “significant differences from the vehicle control group” and the “epidermal hyperplasia of the ear vs vehicle-IMQ group” value ([2]; mid-dose 0.2 mg/kg IV, not statistically significant) was “Minimal decreases in epidermal hyperplasia of the ear”.

— patent US20160115200A1, “New Use for JNK Inhibitor Molecules for Treatment of Various Diseases” (XIGEN INFLAMMATION LTD., priority 2013, published 2016)
